Data taken from ChEMBL document CHEMBL5614456, “Emerging Techniques in Cancer Therapy: Precision Targeting for Improved Outcomes” (ACS Med Chem Lett, 2024).
pIC50: −log10 of the molar value.

Test: Inhibition of ERK phosphorylation at Thr202/Tyr204 residues in human ASPC1 cells harboring KRAS G12D mutant […] incubated for 24 hrs by ELISA
Assay type: cell-based
Details: ASPC1, 24 h
Compound `Cc1ncsc1-c1ccc(C2(NC(=O)[C@@H]3C[C@@H](O)CN3C(=O)[C@H](C(C)C)n3cc(-c4ccc(COc5c(-c6c(C)c(F)cc7c6cnn7C6CCCCO6)c(C6CC6)cc6c(N7C[C@@H]8C[C@H]7CN8C(=O)OC(C)(C)C)nc(OC7CCOCC7)nc56)cc4)nn3)CC2)cc1` (stereo partly drawn) has a pIC50 of 8.15. `Cc1c(F)cc2c(cnn2C2CCCCO2)c1-c1c(C2CC2)cc2c(N3C[C@@H]4C[C@H]3CN4C(=O)OC(C)(C)C)nc(OC3COC3)nc2c1OCc1ccccc1` (stereo partly drawn) gave a pIC50 of 8.22. In the case of `CC(C)(C)OC(=O)N1C[C@@H]2C[C@H]1CN2c1nc(OC2CCOCC2)nc2c(OCc3ccccc3)c(Br)c(C3CC3)cc12`, the pIC50 was 7.82. `CCSc1nc(N2C[C@@H]3C[C@H]2CN3C(=O)OC(C)(C)C)c2cc(C3CC3)c(Br)c(OCc3ccccc3)c2n1` showed a pIC50 of 7.59. `CCCCCCCCCCCCSc1nc(N2C[C@@H]3C[C@H]2CN3C(=O)OC(C)(C)C)c2cc(C3CC3)c(Br)c(OCc3ccccc3)c2n1` gave a pIC50 of 7.74. Compound `Cc1c(F)cc2c(cnn2C2CCCCO2)c1-c1c(C2CC2)cc2c(N3C[C@@H]4C[C@H]3CN4C(=O)OC(C)(C)C)nc(OC3CCOCC3)nc2c1OCc1ccc(-c2cn([C@H](C(=O)N3C[C@H](O)C[C@H]3C(=O)N[C@H](CO)c3ccc(-c4ccnn4C)cc3)C(C)C)nn2)cc1` (stereo partly drawn) has a pIC50 of 7.96. `Cc1ncsc1-c1ccc([C@@H](CO)NC(=O)[C@@H]2C[C@@H](O)CN2C(=O)[C@H](C(C)C)n2cc(-c3ccc(COc4c(-c5c(C)c(F)cc6c5cnn6C5CCCCO5)c(C5CC5)cc5c(N6C[C@@H]7C[C@H]6CN7C(=O)OC(C)(C)C)nc(OC6CCOCC6)nc45)cc3)nn2)cc1` (stereo partly drawn) showed a pIC50 of 8.10. `CCSc1nc(N2C[C@@H]3C[C@H]2CN3C(=O)OC(C)(C)C)c2cc(I)c(Br)c(OCc3ccccc3)c2n1` gave a pIC50 of 7.77.
